In the Deep4Chem optical property database:

Experiment: solvent given as SMILES

CC/[NH+]=c1\cc2oc3cc(NCCC(=O)NCC(=O)OC)c4ccccc4c3nc-2cc1C
absorption maximum (in CCO): 600 nm | absorption maximum (in O): 590 nm

O=P1(c2ccccc2)c2ccc(N3c4ccccc4Sc4ccccc43)cc2-c2cc(N3c4ccccc4Sc4ccccc43)ccc21
absorption maximum (in Cc1ccccc1): 422 nm

CCCCCCc1ccc(-n2c3c4cccc(OC)c4nc(-c4ccc(OC)cc4)c3c3c2c2c(-c4ccc(OC)cc4)nc4c(OC)cccc4c2n3-c2ccc(CCCCCC)cc2)cc1
absorption maximum (in ClC(Cl)Cl): 317 nm

CCCCCCCCCCCCCCCCCCN1C(=O)c2ccc3c4ccc5c6c(ccc(c7ccc(c2c37)C1=O)c64)C(=O)N(CCCCCCCCCCCCCCCCCC)C5=O
absorption maximum (in CN(C)C=O): 525 nm

N#CC(C#N)=Cc1ccc2c(c1)c1ccccc1n2-c1cccc2ccccc12
absorption maximum (in ClCCl): 404 nm

Nc1cccc2ncccc12
absorption maximum (in CC#N): 340 nm | absorption maximum (in O): 333 nm

CCCN(CCC)CCC
absorption maximum (in CCCCCC): 199 nm

COC(=O)C[C@H](NC(=O)[C@H](Cc1c[nH]c2ccccc12)NC(=O)OC(C)(C)C)C(=O)OC
absorption maximum (in CC#N): 280 nm | absorption maximum (in CCOC(C)=O): 280 nm | absorption maximum (in CO): 280 nm

Cc1ccc(C)n1-c1ccccc1
absorption maximum (in CC#N): 234 nm | absorption maximum (in CCCCCC): 240 nm

CCC1=C(C)C2=C(c3ccc(-c4c5ccccc5c(-c5ccccc5)c5ccccc45)cc3)c3c(C)c(CC)c(C)n3[B-](F)(F)[N+]2=C1C
absorption maximum (in CC#N): 523 nm | absorption maximum (in CCCCCC): 526 nm | absorption maximum (in CCO): 525 nm | absorption maximum (in CN(C)C=O): 526 nm | absorption maximum (in Cc1ccccc1): 529 nm | absorption maximum (in ClCCl): 527 nm

CC(C)(C)c1ccc2c(c1)c1cc(C(C)(C)C)ccc1n2-c1cccc2c1Oc1c(-c3nc(-c4ccccc4)nc(-c4ccccc4)n3)cccc1C2(C)C
absorption maximum (in Cc1ccccc1): 346 nm

COc1ccccc1C1=[N+]2C(=C(c3ccccc3)c3c4ccccc4c(-c4ccccc4OC)n3[B-]2(F)F)c2ccccc21
absorption maximum (in ClCCl): 617 nm

N#CC(C#N)=C(/C=C/c1ccc(N(c2ccccc2)c2ccccc2)cc1)c1ccc2c3c(cccc13)CC2
absorption maximum (in C1CCOC1): 485 nm | absorption maximum (in CC#N): 486 nm | absorption maximum (in CC(C)=O): 485 nm | absorption maximum (in CCOC(C)=O): 482 nm | absorption maximum (in CN(C)C=O): 493 nm | absorption maximum (in CO): 490 nm | absorption maximum (in Cc1ccccc1): 493 nm | absorption maximum (in ClC(Cl)Cl): 502 nm

CCCCCc1c(C(=O)c2ccc3c4c(cccc24)-c2cccc4c2C3CC=C4)c2ccc3cccc4c5cccc6ccc1c(c65)c2c34 (configuration not stated)
absorption maximum (in ClCCl): 470 nm

F[B-]1(F)n2c(-c3ccccc3)cc(-c3ccccc3)c2C(c2ccccc2)=C2C(c3ccccc3)=CC(c3ccccc3)=[N+]21
absorption maximum (in C1CCOC1): 561 nm

CC(C)(C)c1ccc2c(c1)c1cc(C(C)(C)C)cc3c1n2B1c2c-3cccc2-c2cc(C(C)(C)C)cc3c4cc(C(C)(C)C)ccc4n1c23
absorption maximum (in C1CCOC1): 387 nm

COc1ccc2cc(-c3ccc(C(F)(F)F)cc3)oc(=O)c2c1
absorption maximum (in CCCCCC): 326 nm | absorption maximum (in CCCCCCCCO): 327 nm | absorption maximum (in CCCCO): 326 nm | absorption maximum (in CCCO): 325 nm | absorption maximum (in CCO): 324 nm | absorption maximum (in CCOC(C)=O): 326 nm | absorption maximum (in CN(C)C=O): 328 nm | absorption maximum (in CO): 324 nm | absorption maximum (in ClC(Cl)Cl): 327 nm

COc1ccc2c(c1)SC1=Nc3sc4cc(OC)ccc4[n+]3CN12
absorption maximum (in CO): 405 nm

Fc1nc(F)c(F)c(C#Cc2nccnc2C#Cc2c(F)c(F)nc(F)c2F)c1F
absorption maximum (in CC#N): 305 nm

Cc1cc(C)c(B(c2c(C)cc(C)cc2C)c2cc3cccc4c(B(c5c(C)cc(C)cc5C)c5c(C)cc(C)cc5C)cc5cccc2c5c34)c(C)c1
absorption maximum (in CCCCCC): 392 nm

COc1cc(C2CC(=O)Oc3c2c2nc4ccc(C)cc4nc2c2ccccc32)cc(OC)c1OC (configuration not stated)
absorption maximum (in ClC(Cl)Cl): 412 nm

N=C(N)N
absorption maximum (in O): 265 nm

O=C1C(=c2c(=O)c3c4ccccc4cc4cc5ccccc5c2c43)C(=O)c2ccccc21
absorption maximum (in ClCCl): 518.56 nm

Cc1cc(C2=Cc3cccc[n+]3[B-](F)(F)O2)ccc1N(C)C
absorption maximum (in ClC(Cl)Cl): 400 nm

CCN1CCN(c2ccc(/N=N/c3cc(C(F)(F)F)cc(C(F)(F)F)c3)cc2)CC1
absorption maximum (in CCOC(C)=O): 427 nm

CCn1c2ccccc2c2cc(C#Cc3cc(C#Cc4ccc5c(c4)c4ccccc4n5CC)nc(C#N)n3)ccc21
absorption maximum (in C1CCOC1): 410 nm | absorption maximum (in CCOC(C)=O): 405 nm | absorption maximum (in CN(C)C=O): 411 nm | absorption maximum (in Cc1ccccc1): 410 nm | absorption maximum (in ClCCl): 415 nm

O=C1c2ccccc2-c2c(-c3cc(Cl)ccc3O)[nH]c(=O)n21
absorption maximum (in CC#N): 390 nm | absorption maximum (in CO): 393 nm | absorption maximum (in ClCCl): 395 nm

CCc1c(C)c2n(c1C)[B-](F)(F)[N+]1=C(c3ccc[nH]3)c3ccccc3C1=C2C
absorption maximum (in C1CCOC1): 604 nm | absorption maximum (in CC#N): 597 nm | absorption maximum (in CCCCCC): 604 nm | absorption maximum (in CO): 599 nm | absorption maximum (in Cc1ccccc1): 609 nm | absorption maximum (in ClCCl): 605 nm

c1ccc(-c2cc(-c3ccccc3)cc(-c3ccc4c(c3)C3(c5ccccc5-4)c4ccccc4-c4c3c3c5ccccc5c(-c5cc(-c6ccccc6)cc(-c6ccccc6)c5)cc3c3ccccc43)c2)cc1 (configuration not stated)
absorption maximum (in C1CCOC1): 387 nm

O=C(O)c1ccc(-c2cnc(-c3ccc(N(c4ccccc4)c4ccccc4)cc3)s2)cc1
absorption maximum (in CO): 387 nm

CC(C)c1cccc(C(C)C)c1N1C(=O)c2ccc3c4c(-c5ccc(C(=O)O)cc5)c5ccc6c7c(cc8c9cc(C(=O)O)ccc9c(c9ccc(c2c39)C1=O)c4c8c57)C(=O)N(c1c(C(C)C)cccc1C(C)C)C6=O
absorption maximum (in ClCCl): 607 nm

O=P1(c2ccccc2)c2ccccc2-n2cccc21 (configuration not stated)
absorption maximum (in ClCCl): 290 nm

O=C(O)c1ccccc1Nc1ccccc1
absorption maximum (in C1CCOC1): 353 nm | absorption maximum (in C1COCCO1): 353 nm | absorption maximum (in CC#N): 350 nm | absorption maximum (in CCOC(C)=O): 356 nm | absorption maximum (in CN(C)C=O): 341 nm | absorption maximum (in ClC(Cl)Cl): 357 nm

c1ccn(-c2ccc(-c3cc(-c4ccc(-n5cccc5)cc4)cc(-c4ccc(-n5cccc5)cc4)c3)cc2)c1
absorption maximum (in ClCCl): 388.72 nm

COc1cc2c(cc1/C=C/C1=CC(=C(C#N)C#N)CC(C)(C)C1)c1ccccc1n2C
absorption maximum (in C1CCOC1): 475 nm | absorption maximum (in CC#N): 477 nm | absorption maximum (in CCO): 479 nm | absorption maximum (in CCOC(C)=O): 462 nm | absorption maximum (in CN(C)C=O): 484 nm | absorption maximum (in CS(C)=O): 489 nm | absorption maximum (in Cc1ccccc1): 468 nm | absorption maximum (in ClC(Cl)Cl): 485 nm | absorption maximum (in ClCCl): 478 nm

COc1ccc2c(c1)CCC1=C(C#Cc3ccc(Cl)cc3)O[B-](F)(F)[O+]=C12
absorption maximum (in ClCCl): 445 nm

CC(C)(C)NC(=O)c1ccc(Br)c2ccc3c4ccc(F)cc4c4cc(F)ccc4c3c12
absorption maximum (in ClCCl): 338 nm

N#Cc1nn(-c2cc(F)cc(F)c2)nc1N1CCCC1
absorption maximum (in CC#N): 350 nm

CCOC(=O)CN(CC(=O)OCC)c1ccc(-c2cc(-c3ccncc3)nc(-c3ccncc3)c2)cc1
absorption maximum (in CC#N): 334 nm | absorption maximum (in CCOC(C)=O): 334 nm | absorption maximum (in CN(C)C=O): 342 nm | absorption maximum (in CS(C)=O): 344 nm | absorption maximum (in c1ccccc1): 332 nm

COC(=O)c1nc(Br)c(-c2ccccc2)o1
absorption maximum (in C1CCCCC1): 307 nm

COc1cccc2cc(-c3ccc([N+](=O)[O-])cc3)c(=N)oc12
absorption maximum (in C1CCOC1): 339 nm | absorption maximum (in CC#N): 332 nm | absorption maximum (in CS(C)=O): 335 nm | absorption maximum (in ClC(Cl)Cl): 332 nm

CN(C)c1ccc(/C=C/c2nc(/C=C/c3ccc(N(c4ccccc4)c4ccccc4)cc3)cc(/C=C/c3ccc(N(c4ccccc4)c4ccccc4)cc3)n2)cc1
absorption maximum (in ClCCl): 409 nm

COc1cc(OC)cc(C2=C3C(C)=C(I)C(/C=C/c4c[nH]c5ccc([N+](=O)[O-])cc45)=[N+]3[B-](F)(F)n3c(/C=C/c4c[nH]c5ccc([N+](=O)[O-])cc45)c(I)c(C)c32)c1
absorption maximum (in C1CCOC1): 695 nm | absorption maximum (in CS(C)=O): 712 nm | absorption maximum (in ClCCl): 690 nm

N#Cc1cc2ccc([O-])cc2oc1=O
absorption maximum (in O): 408 nm

CCCCCCCCn1c(=O)c2cc3cc4cc5c(=O)n(CCCCCCCC)c(=O)c5cc4c(C#Cc4ccc(N(c5ccccc5)c5ccccc5)cc4)c3cc2c1=O
absorption maximum (in ClC(Cl)Cl): 515 nm

Cc1cccc(C2=Cc3ccc4ccccc4[n+]3[B-](F)(F)O2)c1
absorption maximum (in ClC(Cl)Cl): 429 nm

COCCOCCOCCOc1ccc(/C=C/C2=[N+]3C(=C(c4cc(OC)cc(OC)c4)c4c(C)c(I)c(/C=C/c5ccc(OCCOCCOCCOC)cc5)n4[B-]3(F)F)C(C)=C2I)cc1
absorption maximum (in C1CCOC1): 664 nm | absorption maximum (in CS(C)=O): 666 nm | absorption maximum (in ClCCl): 664 nm

COC(=O)c1cc(=O)n(C)c2cc(-c3ccc(N4CCN(C)CC4)cc3)sc12
absorption maximum (in CC#N): 418 nm | absorption maximum (in ClCCl): 420 nm

CCOC(=O)c1c2c3c(cccc3c3cc4c(cc13)[Si](C)(C)O[Si]4(C)C)N(C)C2=O
absorption maximum (in CC#N): 376 nm

CC(C)[Si](C#Cc1c2nc3ccccc3nc2c(C#C[Si](C(C)C)(C(C)C)C(C)C)c2nc3c(ccc4cc5ccccc5cc43)nc12)(C(C)C)C(C)C
absorption maximum (in CCCCCC): 638 nm

CC(C)[Si](C#Cc1cc2c(=S)c3cc(C#C[Si](C(C)C)(C(C)C)C(C)C)cc4c(=S)c5cc(C#C[Si](C(C)C)(C(C)C)C(C)C)cc6c(=S)c(c1)c2n(c34)c65)(C(C)C)C(C)C
absorption maximum (in ClCCl): 577 nm

F[B-]1(F)n2c(cc3c2-c2ccccc2CC3)C(c2ccc(I)cc2)=C2C=C3CCc4ccccc4C3=[N+]21
absorption maximum (in ClC(Cl)Cl): 634 nm

CO
absorption maximum (in CCCCCC): 177 nm

O=[N+]([O-])c1ccc(F)cc1C1CC(c2cccc3ccccc23)=NN1c1ccccc1 (configuration not stated)
absorption maximum (in C1CCCCC1): 365 nm | absorption maximum (in C1CCOC1): 374 nm | absorption maximum (in C1COCCO1): 372 nm | absorption maximum (in CC#N): 367 nm | absorption maximum (in CC(C)O): 370 nm | absorption maximum (in CCOC(C)=O): 371 nm | absorption maximum (in CCOCC): 363 nm | absorption maximum (in CO): 372 nm | absorption maximum (in Cc1ccccc1): 368 nm | absorption maximum (in ClC(Cl)Cl): 363 nm | absorption maximum (in O): 375 nm

c1ccc(Nc2nc(Nc3ccccc3)nc(Nc3ccc4ccc5cccc6ccc3c4c56)n2)cc1
absorption maximum (in CC#N): 342 nm | absorption maximum (in CCCCOCCCC): 342 nm | absorption maximum (in CO): 340 nm

CN(C)c1cccc2c1-c1ccccc1C2=O
absorption maximum (in C1CCCCC1): 412 nm | absorption maximum (in CC#N): 439 nm | absorption maximum (in CCO): 438 nm | absorption maximum (in c1ccccc1): 433 nm
